Active and inactive are the calls of the source. No cut-off for these calls is given here.

In one data set the test system is CAPAN-1. The data set can be described thus: Antiproliferative activity against human CAPAN-1 cells assessed as inhibition of cell proliferation measured after 72 hrs by MTT assay. The following applies: CAPAN-1, 72 h. It counts as functional, cell-based.
On to `Cc1[nH]c2c(O)c3c(c(O)c2c1C(=O)N1CC[C@@H](N)C1)C(=O)c1ccccc1C3=O`, for which the half-maximal inhibitory concentration (IC50) was 0.5 µM.

Consider `O=C1c2ccccc2C(=O)c2c1c(O)c1scc(C(=O)N[C@H]3CCNC3)c1c2O`, for which the IC50 worked out at 2.8 µM.

As for `Cc1c(C(=O)N2CC[C@H](N)C2)c2c(O)c3c(c(O)c2n1Cc1ccccc1)C(=O)c1ccccc1C3=O`, the IC50 is 1.6 µM.

On to `Cc1c(C(=O)N2CC[C@H](N)C2)c2c(O)c3c(c(O)c2n1C)C(=O)c1ccccc1C3=O`, for which the IC50 turned out to be 1.1 µM.

For the compound `COc1cccc2c1C(=O)c1c(O)c3c(c(O)c1C2=O)C[C@@](O)(C(=O)CO)C[C@@H]3O[C@H]1C[C@H](N)[C@H](O)[C@H](C)O1` [DOXORUBICIN], the IC50 was determined as 1.7 µM.

Consider `Cc1[nH]c2c(O)c3c(c(O)c2c1C(=O)N1CCC(N)CC1)C(=O)c1ccccc1C3=O`, for which the IC50 amounted to 1.7 µM.

The test system of a further data set is HCT-116. In words: Antiproliferative activity against human HCT-116 cells assessed as inhibition of cell proliferation measured after 72 hrs by MTT assay. It counts as functional, cell-based. The following applies: HCT-116, 72 h.
For `Cc1[nH]c2c(O)c3c(c(O)c2c1C(=O)N1CC[C@@H](N)C1)C(=O)c1ccccc1C3=O`, the IC50 is 1.5 µM.

On to `O=C1c2ccccc2C(=O)c2c1c(O)c1scc(C(=O)N[C@H]3CCNC3)c1c2O`, for which the IC50 is 0.9 µM.

Consider `Cc1c(C(=O)N2CC[C@H](N)C2)c2c(O)c3c(c(O)c2n1Cc1ccccc1)C(=O)c1ccccc1C3=O`, for which the half-maximal inhibitory concentration (IC50) was determined as 1.8 µM.

Regarding `Cc1c(C(=O)N2CC[C@H](N)C2)c2c(O)c3c(c(O)c2n1C)C(=O)c1ccccc1C3=O`, the IC50 stood at 1.8 µM.

As for `Cc1[nH]c2c(O)c3c(c(O)c2c1C(=O)N1CCC(N)CC1)C(=O)c1ccccc1C3=O`, the concentration for half-maximal inhibition (IC50) was determined as 1.4 µM.

A further data set has as its system NCI-H460. In words: Antiproliferative activity against human NCI-H460 cells assessed as inhibition of cell proliferation measured after 72 hrs by MTT assay. It counts as functional, cell-based. The following applies: NCI-H460, 72 h.
On to `Cc1[nH]c2c(O)c3c(c(O)c2c1C(=O)N1CC[C@@H](N)C1)C(=O)c1ccccc1C3=O`, for which the IC50 worked out at 0.5 µM.

As for `O=C1c2ccccc2C(=O)c2c1c(O)c1scc(C(=O)N[C@H]3CCNC3)c1c2O`, the IC50 stood at 1.4 µM.

Take `Cc1c(C(=O)N2CC[C@H](N)C2)c2c(O)c3c(c(O)c2n1Cc1ccccc1)C(=O)c1ccccc1C3=O`: the IC50 is 5.4 µM.

Regarding `Cc1c(C(=O)N2CC[C@H](N)C2)c2c(O)c3c(c(O)c2n1C)C(=O)c1ccccc1C3=O`, the IC50 is 16.3 µM.

Take `COc1cccc2c1C(=O)c1c(O)c3c(c(O)c1C2=O)C[C@@](O)(C(=O)CO)C[C@@H]3O[C@H]1C[C@H](N)[C@H](O)[C@H](C)O1` [DOXORUBICIN]: the IC50 was 0.4 µM.

In the case of `Cc1[nH]c2c(O)c3c(c(O)c2c1C(=O)N1CCC(N)CC1)C(=O)c1ccccc1C3=O`, the IC50 worked out at 2.9 µM.

A further data set concerns HL-60. The data set can be described thus: Antiproliferative activity against human HL-60 cells assessed as inhibition of cell proliferation measured after 72 hrs by MTT assay. The following applies: HL-60, 72 h. Type of data set: functional, cell-based.
On to `Cc1[nH]c2c(O)c3c(c(O)c2c1C(=O)N1CC[C@@H](N)C1)C(=O)c1ccccc1C3=O`, for which the IC50 was 0.2 µM.

For the compound `O=C1c2ccccc2C(=O)c2c1c(O)c1scc(C(=O)N[C@H]3CCNC3)c1c2O`, the IC50 is 3.9 µM.

`Cc1c(C(=O)N2CC[C@H](N)C2)c2c(O)c3c(c(O)c2n1Cc1ccccc1)C(=O)c1ccccc1C3=O`: the IC50 turned out to be 1.1 µM.

Regarding `Cc1c(C(=O)N2CC[C@H](N)C2)c2c(O)c3c(c(O)c2n1C)C(=O)c1ccccc1C3=O`, the IC50 came to 0.7 µM.

As for `Cc1[nH]c2c(O)c3c(c(O)c2c1C(=O)N1CCC(N)CC1)C(=O)c1ccccc1C3=O`, the IC50 was determined as 0.8 µM.

A further data set concerns K562. In words: Antiproliferative activity against human K562 cells assessed as inhibition of cell proliferation measured after 72 hrs by MTT assay. Type of data set: functional, cell-based. The following applies: K562, 72 h.
Regarding `Cc1[nH]c2c(O)c3c(c(O)c2c1C(=O)N1CC[C@@H](N)C1)C(=O)c1ccccc1C3=O`, the IC50 was determined as 0.3 µM.

Turning to `O=C1c2ccccc2C(=O)c2c1c(O)c1scc(C(=O)N[C@H]3CCNC3)c1c2O`, the IC50 was determined as 0.7 µM.

For the compound `Cc1c(C(=O)N2CC[C@H](N)C2)c2c(O)c3c(c(O)c2n1Cc1ccccc1)C(=O)c1ccccc1C3=O`, the IC50 worked out at 0.7 µM.

As to `Cc1c(C(=O)N2CC[C@H](N)C2)c2c(O)c3c(c(O)c2n1C)C(=O)c1ccccc1C3=O`, the IC50 was determined as 1.2 µM.

Consider `Cc1[nH]c2c(O)c3c(c(O)c2c1C(=O)N1CCC(N)CC1)C(=O)c1ccccc1C3=O`, for which the IC50 is 2.3 µM.

Tested on in a further data set: not listed separately
In words: Antiproliferative activity against P-gp-positive/doxorubicin-resistant human K562/4 cells assessed as inhibition of cell proliferation measured after 72 hrs by MTT assay. Type of data set: functional. The following applies: K562/4, 72 h.
On to `Cc1c(C(=O)N2CC[C@H](N)C2)c2c(O)c3c(c(O)c2n1Cc1ccccc1)C(=O)c1ccccc1C3=O`, for which the IC50 was found to be 5.5 µM.

With `Cc1c(C(=O)N2CC[C@H](N)C2)c2c(O)c3c(c(O)c2n1C)C(=O)c1ccccc1C3=O`, the IC50 was found to be 25 µM.

As for `COc1cccc2c1C(=O)c1c(O)c3c(c(O)c1C2=O)C[C@@](O)(C(=O)CO)C[C@@H]3O[C@H]1C[C@H](N)[C@H](O)[C@H](C)O1` [DOXORUBICIN], the half-maximal inhibitory concentration (IC50) amounted to 5.5 µM.

The subject of another data set is HCT-116. The data set can be described thus: Antiproliferative activity against human HCT-116 cells with inactivated p53 gene assessed as inhibition of cell proliferation measured after 72 hrs by MTT assay. Type of data set: functional, cell-based. The following applies: HCT-116, 72 h.
Turning to `Cc1c(C(=O)N2CC[C@H](N)C2)c2c(O)c3c(c(O)c2n1Cc1ccccc1)C(=O)c1ccccc1C3=O`, the IC50 worked out at 1.8 µM.

For `Cc1c(C(=O)N2CC[C@H](N)C2)c2c(O)c3c(c(O)c2n1C)C(=O)c1ccccc1C3=O`, the IC50 came out at 3.2 µM.

A further data set has as its system TERT-RPE1. In words: Cytotoxicity against human TERT-RPE1 cells assessed as inhibition of cell proliferation measured after 72 hrs by MTT assay. The settings on record: RPE-1, 72 h. It counts as cell-based.
In the case of `Cc1[nH]c2c(O)c3c(c(O)c2c1C(=O)N1CC[C@@H](N)C1)C(=O)c1ccccc1C3=O`, the IC50 is 15.9 µM.

Consider `O=C1c2ccccc2C(=O)c2c1c(O)c1scc(C(=O)N[C@H]3CCNC3)c1c2O`, for which the IC50 was 14.9 µM.

With `Cc1c(C(=O)N2CC[C@H](N)C2)c2c(O)c3c(c(O)c2n1Cc1ccccc1)C(=O)c1ccccc1C3=O`, the IC50 came to 14.7 µM.

Turning to `Cc1c(C(=O)N2CC[C@H](N)C2)c2c(O)c3c(c(O)c2n1C)C(=O)c1ccccc1C3=O`, the IC50 is 16.1 µM.

For the compound `COc1cccc2c1C(=O)c1c(O)c3c(c(O)c1C2=O)C[C@@](O)(C(=O)CO)C[C@@H]3O[C@H]1C[C@H](N)[C@H](O)[C@H](C)O1` [DOXORUBICIN], the IC50 amounted to 1 µM.

Take `Cc1[nH]c2c(O)c3c(c(O)c2c1C(=O)N1CCC(N)CC1)C(=O)c1ccccc1C3=O`: the concentration for half-maximal inhibition (IC50) was 14.2 µM.

Tested on in the next data set: not listed separately
The data set can be described thus: Resistance index, ratio of IC50 for human P-gp-positive/Doxorubicin-resistant K562/4 cells to IC50 for human K562 cells.
Settings: not given
It counts as functional.
In the case of `Cc1c(C(=O)N2CC[C@H](N)C2)c2c(O)c3c(c(O)c2n1Cc1ccccc1)C(=O)c1ccccc1C3=O`, the “Ratio IC50” value is reported as 7.9.

For `Cc1c(C(=O)N2CC[C@H](N)C2)c2c(O)c3c(c(O)c2n1C)C(=O)c1ccccc1C3=O`, the “Ratio IC50” value was determined as 19.2.

Another data set deals with Calf thymus DNA. The data set can be described thus: Binding affinity to calf thymus double stranded DNA at 10 uM measured after 5 mins by flourescence spectroscopy method. The settings on record: Bos taurus.
With `Cc1c(C(=O)N2CC[C@H](N)C2)c2c(O)c3c(c(O)c2n1C)C(=O)c1ccccc1C3=O`, the outcome was Active.

The test system of a further data set is Calf thymus DNA. In words: Binding affinity to calf thymus DNA assessed as DNA intercalation by measuring decrease of negative DNA band at 245 nm at 50 uM by circular dichroism spectral analysis. The following applies: Bos taurus. Type of data set: tissue-based.
As to `Cc1c(C(=O)N2CC[C@H](N)C2)c2c(O)c3c(c(O)c2n1C)C(=O)c1ccccc1C3=O`, the result was Active.

A further data set concerns Calf thymus DNA. In words: Binding affinity to calf thymus DNA assessed as binding constant by scatchard plot analysis. The settings on record: Bos taurus.
In the case of `Cc1c(C(=O)N2CC[C@H](N)C2)c2c(O)c3c(c(O)c2n1C)C(=O)c1ccccc1C3=O`, the Kb was 7.5 10^5/M.

Another data set has as its system Calf thymus DNA. In words: Binding affinity to calf thymus DNA assessed as dissociation constant by scatchard plot analysis. Also noted: species or system Bos taurus.
Settings: not given
For `Cc1c(C(=O)N2CC[C@H](N)C2)c2c(O)c3c(c(O)c2n1C)C(=O)c1ccccc1C3=O`, the Kd was 1.3 µM.

A further data set has as its system Calf thymus DNA. The data set can be described thus: Binding affinity to calf thymus DNA assessed as stoichiometry ratio of compound-DNA complex formation by scatchard plot analysis. The following applies: Bos taurus.
As to `Cc1c(C(=O)N2CC[C@H](N)C2)c2c(O)c3c(c(O)c2n1C)C(=O)c1ccccc1C3=O`, the Ratio stood at 3.

Tested on in the next data set: not listed separately
The data set can be described thus: Drug uptake in mouse NIH3T3 cells assessed as compound localization in nucleus at 1 uM measured after 15 mins by laser scanning microscope. Type of data set: ADME, subcellular. The following applies: nih3t3, 0.25 h.
With `COc1cccc2c1C(=O)c1c(O)c3c(c(O)c1C2=O)C[C@@](O)(C(=O)CO)C[C@@H]3O[C@H]1C[C@H](N)[C@H](O)[C@H](C)O1` [DOXORUBICIN], the Drug uptake result is on record as “Active”.

For another data set, the system named is P388. The data set can be described thus: Antitumour activity against mouse P388 cells xenografted intraperitoneally in BDF1 mouse assessed as mean life span time at 20 mg/kg, ip administered qd for 5 days (reference value: 11.5 +/-0.9 days). The following applies: dose 20 mg/kg/day; time 5 day. It counts as functional.
Consider `Cc1[nH]c2c(O)c3c(c(O)c2c1C(=O)N1CC[C@@H](N)C1)C(=O)c1ccccc1C3=O`, for which the Time turned out to be 17.3 days.

The subject of the next data set is P388. The data set can be described thus: Antitumour activity against mouse P388 cells xenografted intraperitoneally in BDF1 mouse assessed as […] T/C ratio at 20 mg/kg, ip administered qd for 5 days (reference value: 100%). Type of data set: functional. The following applies: dose 20 mg/kg/day; time 5 day.
As to `Cc1[nH]c2c(O)c3c(c(O)c2c1C(=O)N1CC[C@@H](N)C1)C(=O)c1ccccc1C3=O`, the T/C stood at 150%.
